{"source": "patent US20210290576A1", "about": "“STRUCTURALLY MODIFIED FATTY ACIDS FOR IMPROVING GLYCEMIC CONTROL AND TREATING INFLAMMATORY BOWEL DISEASE” (NORTHSEA THERAPEUTICS B.V., priority 2018, published 2021)", "key": {"DSS-induced colitis mice": {"system": "DSS-induced colitis mice", "assay": "DSS-induced colitis mouse model (body weight, colon length, survival, histology)", "type": "in vivo, C56BL/6J mouse", "settings": "for colon length compared to control: 7 days DSS", "excerpt": "Evaluation of Effects of Compound B on Intestinal Inflammation in DSS-Induced Colitis Mice\nThe dextran sodium sulphate-induced (DSS)-induced colitis model is well known in the art as a reproducible chemical induction of intestinal inflammation animal model. See, e.g., Eichele et al., World J Gastroenterol, 2017, 23(33):6016-6029; Randhawa et al., Korean J. Physiol. Pharmacol. (2014) 18:279-288; Jurjus et al., J. Pharmacol. Toxicol., Methods, 2004, 50:81-92; Gaudio et al., Dig. Dis. Sci., 1999, 44:1458-1475. The DSS-induced colitis model morphologically and symptomatically resembles epithelial damage seen in human IBD, and thus has become the most extensively employed experimental model of intestinal inflammation. Okayasu et al., Gastroenterology, 1990, 98:694-702; Kawada et al., World J. Gastroenterol. 2007, 13:5581-5593. The DSS-induced colitis model is most similar to ulcerative colitis in humans, but also has many similarities to Crohn's disease.\nDSS is a water soluble, negatively charged sulfated polysaccharide with a highly variable molecular weight ranging from 5 to 1400 kDa. Murine colitis results from administration of about 1% to 3% DSS to the drinking water of a mouse strain susceptible to DSS-induced colitis. Without being bound by theory, the sulfated polysaccharide may not directly induce intestinal inflammation, but may instead act as a direct chemical toxin to colonic epithelium resulting in epithelial cell injury. It is thought that DSS disrupts the intestinal epithelial monolayer lining, leading to the entry of luminal bacteria and associated antigens into the mucosa and allowing the dissemination of proinflammatory intestinal contents into underlying tissue. […] Perse et al., J. Biomed. Biotechnol., 2012:718617.\nThe C56BL/6J mouse is a strain susceptible to DSS-induced colitis. To evaluate the efficacy and dosage of Compound B in treatment of DSS-induced colitis, inflammation was induced in 30 9-week old C56BL/6J mice by adding 1.5% DSS to the drinking water for 7 days. The mice were fed a standard chow diet that consisted of 30 weight percent wheat. The mice were divided into three groups of 10, and for each day of DSS administration each group was administered via oral gavage either (1) 100 μL corn oil per day (Control), (2) 126 mg/kg Compound B (dissolved in 100 μL corn oil) per day (“Compound B—Low” or “Compound B—L”), or (3) 252 mg/kg Compound B (dissolved in 100 μL corn oil) per day (“Compound B—High” or “Compound B—H”). Following the 7-day period of DSS induction, mice were sacrificed and their intestinal tissue was used for histopathological and gene expression analysis.\nTo assess the efficacy of Compound B in the treatment of DSS-induced colitis in mice, the body weight of mice was monitored. Weight loss is an indicator of colitis severity.\nTo assess the efficacy of Compound B in the treatment of DSS-induced colitis in mice, colon length of test mice was measured. Colon length correlates inversely with inflammation.\n50% (n=5) of untreated mice in the control group were alive 7 days after colitis was induced, compared to 90% (n=9) of mice treated with the low dose of Compound B, and 100% (n=10) of mice treated with the high dose of compound B. Deaths in the control group were due to sepsis and severe colon inflammation. Thus, Compound B has a statistically significant effect on survival rate in colitis mice.\nHistopathological analysis was performed on sections of formalin-fixed paraffin embedded tissue after hematoxylin and eosin (H&E) staining. Colonic samples were analyzed by histopathology for assignment of scores for colitis activity as described in Neurath et al., J. Exp. Med., 2002, 195:1129-1143. Briefly, the degrees of inflammation and epithelial and mucosal injury on microscopic cross-sections of the colon were graded semi-quantitatively from 0 to 4. […]"}, "active GLP-1": {"system": "active GLP-1", "assay": "Active GLP-1 during an oral glucose tolerance test (OGTT) and at 24 h in lean male SPD rats", "type": "in vivo, Sprague-Dawley (SPD) rats", "settings": "in combination with DPP4 inhibitor (linagliptin); Compound A 74 mg/kg, Compound B 84 mg/kg, two oral doses", "experimental": "Evaluation of the Acute Effects of Compound a and Compound B Upon Active GLP-1 wconcentrations during an oral glucose tolerance test (OGTT) and at 24 h in lean male SPD Rats\nTo establish the acute effects of oral administration of Compound A and Compound B upon active GLP-1 and insulin concentrations, lean (about 300 g) male Sprague-Dawley (SPD) rats were divided into groups (n=6-8) and fed 74 and 84 mg/kg body weight of Compound A or Compound B respectively, either with or without concurrent administration of a dipeptidyl peptidase 4 (DPP-4) inhibitor 60 minutes prior to an oral glucose tolerance test (OGTT) as outlined below. Parallel groups receiving either corn oil alone (corn oil+vehicle, n=10) or corn oil and a DPP-4 inhibitor (“DPP-4 i”) (corn oil+(DPP-4 i), n=10) were included as controls. The DPP-4 inhibitor was linagliptin.\nA second oral dose of 74 and 84 mg/kg bodyweight of Compound A or Compound B respectively was administered at 240 minutes and ad lib feeding was initiated. A second dose of DPP-4 inhibitor was administered at 480 mins prior to lights out. Blood samples were collected at 24 h for measurement of active GLP-1 and insulin. All values are mean, figures depict mean values (SEM)."}, "[1]": {"assay": "Intestinal tissue distribution of radioactivity by quantitative whole-body autoradiography (QWBA)", "type": "in vivo, male albino rats", "settings": "single oral 50 mg/kg [14C]-Compound B", "experimental": "Biological Example 7. Concentrations of Radioactivity in Intestinal Segments of Male Albino Rats after a Single Oral Administration of [14C]-Compound B at a Nominal Dose Level of 50 mg/kg Body Weight\nThis study was conducted to determine the intestinal tissue distribution of radioactivity in male albino rats following a single oral administration of [14C]-Compound B using quantitative whole-body autoradiography (QWBA). The tissue distribution in rats following a single oral dose of [14C]-Compound B at 50 mg/kg (Ca 5 MBq/kg) was studied by QWBA analysis up to 168 hours after dosing."}, "atherogenic lipids": {"system": "atherogenic lipids", "settings": "APOE*3.CETP mice; cited from earlier work"}}}
{"smiles": "CC/C=C\\C/C=C\\C/C=C\\C/C=C\\C/C=C\\CCCCSC(CC)(CC)C(=O)O", "note": "[Compound B, 2-ethyl-2-((5Z,8Z,11 Z,14Z,17Z)-icosa-5,8,11,14,17-pentaenylthio)butanoic acid]", "values": [{"measurement": "difference in weight loss, control vs. treated", "setting": "DSS-induced colitis mice; 126 mg/kg per day (Compound B—Low)", "value": "statistically significant after 7 days"}, {"measurement": "colon length compared to control", "setting": "DSS-induced colitis mice; 126 mg/kg per day (low dose)", "value": "significant increase in colon length"}, {"measurement": "difference in weight loss, control vs. treated", "setting": "DSS-induced colitis mice; 252 mg/kg per day (Compound B—High)", "value": "statistically significant after 6 days"}, {"measurement": "histological cross-sections of colon: morphology", "setting": "DSS-induced colitis mice; 252 mg/kg per day (high dose)", "value": "almost complete rescue"}, {"measurement": "histological scores of colonic samples versus untreated mice", "setting": "DSS-induced colitis mice; 252 mg/kg per day (high dose)", "value": "significantly lower"}, {"measurement": "inflammation and epithelial and mucosal injury versus untreated mice", "setting": "DSS-induced colitis mice; 252 mg/kg per day (high dose)", "value": "lower"}, {"measurement": "colon length compared to control", "setting": "DSS-induced colitis mice; 252 mg/kg per day (high dose)", "value": "significant increase in colon length"}, {"measurement": "histological cross-sections of colon: inflammatory infiltrates, edema, villus architecture", "setting": "DSS-induced colitis mice; 126 and 252 mg/kg per day", "value": "dose-dependent attenuation of inflammatory infiltrates and edema"}, {"measurement": "weight loss compared to the control group", "setting": "DSS-induced colitis mice; 126 and 252 mg/kg per day oral gavage, 1.5% DSS for 7 days", "value": "dose-dependent reduction in weight loss"}, {"measurement": "active GLP-1 concentrations at 24 h versus corn oil+vehicle", "setting": "active GLP-1", "value": "significantly (p<0.01) increased"}, {"measurement": "accumulation in the caecum (time span)", "setting": "[1]", "value": "from 4 hours onwards to 1 day"}, {"measurement": "accumulation in the large intestine (time)", "setting": "[1]", "value": 8, "unit": "h"}, {"measurement": "time of peak concentrations in the small intestinal mucosa", "setting": "[1]", "value": 4, "unit": "h"}, {"measurement": "atherogenic lipids", "setting": "atherogenic lipids", "value": "significantly reduce atherogenic lipids"}]}
